Source: paper PMC10097024, “Cytotoxic and Antibacterial Prenylated Acylphloroglucinols from Hypericum olympicum L” (Plants, 2023)
Several values for one entry are separate records, joined by “and”; a condition that tells them apart may be missing. Equal values may be shown once. Read-outs that look alike come from different tables or passages of the source.

What was measured:
[1] = system: K-562 cells; conditions: human leukemia cell line K-562, dissolved in DMSO; cited from earlier work
[2] = system: HL-60; experiment: Antiproliferative test (NCI methodology); format: cell-based, human; conditions: for TGI: HL-60, total growth inhibition; for GI50: HL-60, MTT readout
Description: (§1) The group of human cell lines used in this study were represented by the tumor cell lines MDA-MB (breast carcinoma), EJ (urinary bladder carcinoma), K-562 (chronic myeloid leukemia), HL-60 (acute pre-myeloid leukemia), HL-60/DOX (multi-drug resistant HL-60 cell line, with over expression of MRP-1) and the non-tumorigenic cell lines HEK-293 (embryonic kidney cells) and EA.hy926 (vascular endothelial cells). EJ, HL60 and EA.hy926 were purchased from American Type Culture Collection (ATCC) (Manassas, Virginia). The other cell lines were purchased from the German Collection of Microorganisms and Cell Cultures (DSMZ GmbH, Braunschweig, Germany). HL-60/DOX cell lines were generated by periodically treating HL-60 cells with anthracyclins. The conditions in which the cell culture flasks were maintained were as follows: 37 °C in an incubator “BB 16-Function Line” Heraeus (Kendro, Hanau, Germany) with 5% CO2 humidified atmosphere. The growth medium was 90% RPMI-1640, supplemented with 10% FBS and 2 mM L-glutamine. MDA-MB-231, EJ, HEK-293 and EA.hy926 cells were maintained as adherent monolayer cultures while all the other (leukemic) cell lines were grown as suspension type cultures. Cells were maintained in log phase: the adherent cell lines were subjected to trypsinization 1–2 times a week and the leukemic cell lines were passaged 2–3 times a week by removing of part of the cellular suspension and substituting it with fresh medium.
(§2) The test was performed according the methodology of National Cancer Institute (NCI), USA [116]. Briefly, cells were seeded into 96-well plates in the same way as for an MTT test and after 24 h, the absorption of one plate of each cell line was measured as in the MTT assay described above, to represent a measurement of the cell population at the time of drug-addition (Tz). The rest of the plates were treated with the tested compounds and the experiment for them continued as the MTT-method. Using the absorbance measurements [(Tz, untreated control growth (C) and test growth in the present of the compounds (Ti)], the percentage growth is calculated at each of the tested concentrations of the compounds. Percentage growth inhibition (GI) is calculated as GI%=Ti−Tz/C−Tz×100 for concentrations for which Ti ≥ Tz. For concentrations in which Ti < Tz it is calculated as GI%=Ti−Tz/Tz×100 . Two dose parameters are calculated for each experimental agent. Growth inhibition of 50% (GI50) is calculated from Ti−Tz/C−Tz×100=50 . This is the drug concentration resulting in a 50% reduction in the net protein increase (as measured by MTT-test) in control cells during the drug incubation. The drug concentration resulting in total growth inhibition (TGI) is calculated from Ti = Tz.

[3] = system: MDA-MB-231; experiment: Antiproliferative test (NCI methodology); format: cell-based, human; conditions: for GI50: MDA-MB-231, MTT readout; for TGI: MDA-MB-231, total growth inhibition
Description: as §1, §2

[4] = system: K-562; experiment: Antiproliferative test (NCI methodology); format: cell-based, human; conditions: for GI50: K-562, MTT readout; for TGI: K-562, total growth inhibition
Description: as §1, §2

[5] = system: Staphylococcus aureus—MRSA (NBIMCC 8327); experiment: MIC by broth microdilution; format: cell-based
Description: (§3) The Gram-positive bacterial strains that were examined for susceptibility were: Staphylococcus aureus (ATCC 29213, American Type Cell Culture Collection, Manassas, VA, USA), Staphylococcus aureus—MRSA (NBIMCC 8327-resistant to methicillin and oxacillin, National Bulgarian Collection for Industrial Microorganisms and Cell Cultures, Sofia, Bulgaria), Enterococcus faecalis (ATCC 29212) and Streptococcus pyogenes (SAIMC 10535, Collection of the Stephan Angeloff Institute of Microbiology, Sofia, Bulgaria). The only Gram-negative bacterial strain used was Escherichia coli (ATCC 35218). Bacteria were maintained in Trypticase Soy Broth (TSB, Himedia, India) at 37 °C, aerobic conditions. For the experiments brain heart infusion (BHI) broth (#M210 HiMedia, Mumbai, India) was used for E. faecalis and S. pyogenes and Mueller Hinton broth (MHB, #M0405B) from Thermo Scientific-Oxoid (Basingstoke, UK)—for all other strains.
(§4) BMD was performed according to the following protocol of ISO 20776/1-2006 [117]. A bacterial suspension with density of 10^8 CFU/mL (0.5 McFarland standard, OD600) was prepared from an overnight grown liquid bacterial culture homogenized over vortex and brought to a working bacterial suspension (WBS) with concentration of 5×10^5 CFU/mL by being diluted 200× with MHB or BHI broth and homogenized over vortex again. Two-fold serial dilutions of compounds 3–5 was prepared in 96-well round bottom plates to a volume of 50 μL and final range of concentrations 100–0.2 μg/mL. Stock solutions were dissolved in ethanol and MHB was used as diluent and as test for absence of contamination. Three wells were left as blank samples and 6 wells were left for control samples. An equivalent volume (50 μL) of the WBS was inoculated to each well in the aforementioned plates achieve final bacterial density of […] with the exception of the blank wells. After 18–24 h incubation under aerobic standardized conditions at 37 °C the plates were examined. […] Antibiotics dissolved in sterile distilled water were used as referent positive controls. They were penicillin G (PEN, #B0500000, Merck KGaA, Darmstadt, Germany) for E. faecalis and S. pyogenes, gentamicin (GEN, #15750-037, 50 mg/mL, Gibco, Paisley, UK) for all bacteria except S. pyogenes and ciprofloxacin (CIP, Ciproflav:10 mg/mL, Polfa S.A. Warsaw Pharmaceutical Works, Starogard Gdanski, Poland) for E. faecalis. The range of concentrations were 0.004–2 mg/L for PEN, 0.008–4 mg/L for GEN and 0.005–2 mg/L for CIP. The requirements of EUCAST (European Committee on Antimicrobial Susceptibility Testing) for their MICs were followed for discussing the results. In the end the plates which contained active agents were subjected to assessment of the dehydrogenase activity of the bacteria.

[6] = system: Staphylococcus aureus (ATCC 29213); experiment: MIC by broth microdilution; format: cell-based
Description: as §3, §4

[7] = system: Streptococcus pyogenes (SAIMC 10535); experiment: MIC by broth microdilution; format: cell-based
Description: as §3, §4

[8] = system: Enterococcus faecalis (ATCC 29212); experiment: MIC by broth microdilution; format: cell-based
Description: as §3, §4

| Compound | IC50 [1] [µM] | TGI [2] [µM] | GI50 ([2]; Homo sapiens) [µM] | GI50 ([3]; Homo sapiens) [µM] | TGI [3] [µM] | GI50 ([4]; Homo sapiens, K562) [µM] | TGI [4] [µM] | MIC ([5]; read-out: MIC) | MIC [6] [mg/L] | MIC ([6]; read-out: MIC) [µM] | MIC ([7]; read-out: MIC) | MIC ([8]; ATCC29212, read-out: MIC) | MIC [5] [mg/L] | MIC ([6]; ATCC29213, Staphylococcus aureus, read-out: MIC) | GI50 [2] [µM] | GI50 [3] [µM] | GI50 [4] [µM] | MIC [7] [mg/L] | MIC [8] [mg/L] | MIC ([8]; read-out: MIC) [µM] |
| --- | --- | --- | --- | --- | --- | --- | --- | --- | --- | --- | --- | --- | --- | --- | --- | --- | --- | --- | --- | --- |
| CC(C)=CCC[C@]1(C)[C@@H](CC=C(C)C)C[C@]2(C)C(=O)C(CC=C(C)C)=C(O)[C@@]1(C(=O)C(C)C)C2=O [Compound 3, hyperpolyphyllirin/hyperibine J] | 21.3 | 47.43 | 41.1 | 1.93 | 2.96 | 0.44 | 0.77 | 8 µg/mL and 16.6 µM | 2.00 | 4.14 | 31 µg/mL and 64.2 µM | 8 µg/mL and 16.6 µM | – | – | – | – | – | – | – | – |
| CC(C)=CCC[C@]1(C)[C@@H](CC=C(C)C)C[C@H]2C(=O)[C@]1(C(=O)C(C)C)C(=O)C(CC=C(C)C)=C2O [Compound 5, (1S,5R,7S,8R)-4-hydroxy-1-isobutyryl-8-methyl-3,7-bis(3-methylbut-2-en-1-yl)-8-(4-methylpent-3-en-1-yl)bicyclo[3.3.1]non-3-ene-2,9-dione] | – | – | – | – | – | – | – | 1 µg/mL and 2.14 µM | 1.00 | 2.14 | 4 µg/mL and 8.53 µM | 4 µg/mL and 8.53 µM | 1.00 | 0.78 µg/mL to 2 µg/mL and 1.57 µM to 4.14 µM | – | – | – | – | – | – |
| (1R,5R,7S,8R)-4-hydroxy-5,8-dimethyl-3,7-bis(3-methylbut-2-en-1-yl)-1-(2-methylbutanoyl)-8-(4-methylpent-3-en-1-yl)bicyclo[3.3.1]non-3-ene-2,9-dione [Compound 4] | – | 55.55 | – | – | 0.81 | – | 18.38 | 25.17 µM | 0.78 | 1.57 | 25.17 µM | – | 12.5 | – | 41.1 | 0.52 | 16 | 12.50 | 12.5 | 25.17 |
